Read-outs that look alike come from different tables or passages of the source.
How the values were obtained:
Experiment in all cases: Test C pre-/postemergence greenhouse test, plant response rating 0-100
Assay type in all cases: in vivo
[1] = system: Italian ryegrass (Lolium multiflorum); conditions: Lolium multiflorum; for pest or weed control at 62 g/ha: 62 g ai/ha; for pest or weed control at 125 g/ha: 125 g ai/ha; for pest or weed control at 250 g/ha: 250 g ai/ha; for pest or weed control at 500 g/ha: 500 g ai/ha
Method in brief: (§1)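 Plants were treated either at seeding (soil of loam and sand) or as 2–18 cm seedlings in a sphagnum peat mix, using test chemicals in a surfactant-containing non-phytotoxic solvent. Visual assessment relative to controls followed 13–15 days later.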

[2] = system: large (Lg) crabgrass (Digitaria sanguinalis); conditions: Digitaria sanguinalis; for pest or weed control at 62 g/ha: 62 g ai/ha; for pest or weed control at 125 g/ha: 125 g ai/ha; for pest or weed control at 250 g/ha: 250 g ai/ha; for pest or weed control at 500 g/ha: 500 g ai/ha
Method in brief: as §1

[3] = system: galium (catchweed bedstraw, Galium aparine); conditions: Galium; for pest or weed control at 62 g/ha: 62 g ai/ha; for pest or weed control at 125 g/ha: 125 g ai/ha; for pest or weed control at 250 g/ha: 250 g ai/ha; for pest or weed control at 500 g/ha: 500 g ai/ha
Method in brief: as §1

[4] = system: pigweed (Amaranthus retroflexus); conditions: Amaranthus retroflexus; for pest or weed control at 62 g/ha: 62 g ai/ha; for pest or weed control at 125 g/ha: 125 g ai/ha; for pest or weed control at 250 g/ha: 250 g ai/ha; for pest or weed control at 500 g/ha: 500 g ai/ha
Method in brief: as §1

[5] = system: morningglory (Ipomoea coccinea); conditions: Ipomoea; for pest or weed control at 62 g/ha: 62 g ai/ha; for pest or weed control at 125 g/ha: 125 g ai/ha; for pest or weed control at 250 g/ha: 250 g ai/ha; for pest or weed control at 500 g/ha: 500 g ai/ha
Method in brief: as §1

[6] = system: velvetleaf (Abutilon theophrasti); conditions: Abutilon theophrasti; for pest or weed control at 62 g/ha: 62 g ai/ha; for pest or weed control at 125 g/ha: 125 g ai/ha; for pest or weed control at 250 g/ha: 250 g ai/ha; for pest or weed control at 500 g/ha: 500 g ai/ha
Method in brief: as §1

[7] = post-emergence, Postemergence, read-out: Plant response rating (0 to 100), Ryegrass, Italian
[8] = post-emergence, Postemergence, scale 0 to 100
[9] = pre-emergence, Preemergence, read-out: Plant response rating, Ryegrass, Italian
[10] = post-emergence, Postemergence, read-out: Plant response rating (0 to 100), Crabgrass, Large
[11] = pre-emergence, Preemergence, read-out: Plant response rating, Crabgrass, Large
[12] = post-emergence, Postemergence, read-out: Plant response rating (0 to 100), Galium
[13] = pre-emergence, Preemergence, read-out: Plant response rating, Galium
[14] = post-emergence, Postemergence, read-out: Plant response rating (0 to 100), Pigweed
[15] = pre-emergence, Preemergence, read-out: Plant response rating, Pigweed
[16] = post-emergence, Postemergence, read-out: Plant response rating (0 to 100), Morningglory
[17] = pre-emergence, Preemergence, read-out: Plant response rating, Morningglory
[18] = post-emergence, Postemergence, read-out: Plant response rating (0 to 100), Velvetleaf
[19] = pre-emergence, Preemergence, read-out: Plant response rating, Velvetleaf

SMILES: COC(OC)(c1ccccc1)c1c[nH]nc1-c1cc(Cl)cc(Cl)c1 [Compound 13, 3-(3,5-dichlorophenyl)-4-(dimethoxyphenylmethyl)-1H-pyrazole]
- pest or weed control at 62 g/ha [1, 7]: 0%
- pest or weed control at 125 g/ha [1, 7]: 0%
- pest or weed control at 250 g/ha [1, 8]: 0%
- pest or weed control at 500 g/ha [1, 8]: 0%
- pest or weed control at 62 g/ha [1, 9]: 0%
- pest or weed control at 125 g/ha [1, 9]: 0%
- pest or weed control at 250 g/ha ([1]; pre-emergence, Preemergence): 0%
- pest or weed control at 500 g/ha ([1]; pre-emergence, Preemergence): 0%
- pest or weed control at 62 g/ha [2, 10]: 0%
- pest or weed control at 125 g/ha [2, 10]: 10%
- pest or weed control at 250 g/ha [2, 8]: 10%
- pest or weed control at 500 g/ha [2, 8]: 0%
- pest or weed control at 62 g/ha [2, 11]: 0%
- pest or weed control at 125 g/ha [2, 11]: 0%
- pest or weed control at 250 g/ha ([2]; pre-emergence, Preemergence): 0%
- pest or weed control at 500 g/ha ([2]; pre-emergence, Preemergence): 0%
- pest or weed control at 62 g/ha [3, 12]: 0%
- pest or weed control at 125 g/ha [3, 12]: 0%
- pest or weed control at 250 g/ha [3, 8]: 40%
- pest or weed control at 500 g/ha [3, 8]: 10%
- pest or weed control at 62 g/ha [3, 13]: 60%
- pest or weed control at 125 g/ha [3, 13]: 0%
- pest or weed control at 250 g/ha ([3]; pre-emergence, Preemergence): 30%
- pest or weed control at 500 g/ha ([3]; pre-emergence, Preemergence): 0%
- pest or weed control at 62 g/ha [4, 14]: 75%
- pest or weed control at 125 g/ha [4, 14]: 100%
- pest or weed control at 250 g/ha [4, 8]: 100%
- pest or weed control at 500 g/ha [4, 8]: 100%
- pest or weed control at 62 g/ha [4, 15]: 90%
- pest or weed control at 125 g/ha [4, 15]: 100%
- pest or weed control at 250 g/ha ([4]; pre-emergence, Preemergence): 100%
- pest or weed control at 500 g/ha ([4]; pre-emergence, Preemergence): 100%
- pest or weed control at 62 g/ha [5, 16]: 0%
- pest or weed control at 125 g/ha [5, 16]: 0%
- pest or weed control at 250 g/ha [5, 8]: 10%
- pest or weed control at 500 g/ha [5, 8]: 10%
- pest or weed control at 62 g/ha [5, 17]: 0%
- pest or weed control at 125 g/ha [5, 17]: 0%
- pest or weed control at 250 g/ha ([5]; pre-emergence, Preemergence): 0%
- pest or weed control at 500 g/ha ([5]; pre-emergence, Preemergence): 0%
- pest or weed control at 62 g/ha [6, 18]: 70%
- pest or weed control at 125 g/ha [6, 18]: 75%
- pest or weed control at 250 g/ha [6, 8]: 85%
- pest or weed control at 500 g/ha [6, 8]: 80%
- pest or weed control at 62 g/ha [6, 19]: 60%
- pest or weed control at 125 g/ha [6, 19]: 85%
- pest or weed control at 250 g/ha ([6]; pre-emergence, Preemergence): 75%
- pest or weed control at 500 g/ha ([6]; pre-emergence, Preemergence): 100%

Reference: US10167262B2, “Herbicidal substituted 3-arylpyrazoles” (FMC CORPORATION, priority 2014, dated 2019)
